IC50 data for eleven compounds are collected here from patent US20240360178A1, “MACROCYCLIC IMMUNOMODULATORS” (Bristol-Myers Squibb Company, priority 2021, published 2024).

The target in the test is T1, human PD-1 (Jurkat-PD-1 cells) / PE-labeled human PD-L1-Ig (Homo sapiens, UniProt Q15116).
T1 construct: expressed in transfected cells; host or cells: Jurkat cell line over-expressing human PD-1
The experiment in a line: Jurkat-PD-1 Cell Binding High-Content Screening Assay (CBA); Jurkat hPD1-PDL1 assay. Particulars: Jurkat cell line over-expressing human PD-1; PE-labeled PD-L1-Ig 20 nM final; compound incubated 2 hours at 37° C.; read-out: Jurkat HPD1-PDL1 IC50. The method, boiled down: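 Binding of phycoerythrin-conjugated PD-L1-Ig (20 nM final) to PD-1-overexpressing Jurkat cells was read by high-content imaging. Cells in DMEM/10% FCS were exposed to compound for 2 hours at 37° C before labeled ligand was added.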

Positions of bridges follow the written chain, without caps; N, C: chain ends. Non-standard residues stand in square brackets, D forms with d. Residues, ends and D or L forms follow the SMILES beside them. ξ: configuration not given here. *: point of attachment. Bip = N[C@@H](Cc1ccc(-c2ccccc2)cc1)C(=O)O; NMeY = CN[C@@H](Cc1ccc(O)cc1)C(=O)O; NMeF = CN[C@@H](Cc1ccccc1)C(=O)O; 4Pal = N[C@@H](Cc1ccncc1)C(=O)O; Cha = N[C@@H](CC1CCCCC1)C(=O)O; Carboxymethyl = O=C(O)C*; NMeA = CN[C@@H](C)C(=O)O; Nle = CCCC[C@H](N)C(=O)O; Orn = NCCC[C@H](N)C(=O)O; Dab = NCC[C@H](N)C(=O)O; Abu = CC[C@H](N)C(=O)O; Dap = NC[C@H](N)C(=O)O; ξV = CC(C)C(N)C(=O)O; Sar = CNCC(=O)O

T1 sequence (Q15116 25-288): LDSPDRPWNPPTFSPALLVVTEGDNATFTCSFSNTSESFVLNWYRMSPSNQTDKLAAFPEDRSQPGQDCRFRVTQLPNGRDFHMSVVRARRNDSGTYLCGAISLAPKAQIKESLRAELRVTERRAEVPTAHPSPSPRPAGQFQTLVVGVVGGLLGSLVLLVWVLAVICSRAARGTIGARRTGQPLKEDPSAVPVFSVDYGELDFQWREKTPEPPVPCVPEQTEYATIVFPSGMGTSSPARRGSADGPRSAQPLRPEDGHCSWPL

For `CC(C)C[C@@H]1NC(=O)[C@H](CCCNC(=N)N)NC(=O)[C@H](Cc2ccccc2)N(C)C(=O)[C@H](C)N(C)C(=O)[C@H](C)NC(=O)[C@H](Cc2ccc(-c3ccccc3)cc2)NC(=O)[C@H](C(C)C)NC(=O)[C@H](Cc2c[nH]c3ccccc23)NC(=O)[C@H](CC(=O)O)NC(=O)[C@H](Cc2ccc(O)cc2)NC(=O)[C@H](Cc2ccccc2)NC(=O)CSC[C@@H](C(=O)NCC(N)=O)NC(=O)[C@H](CO)NC(=O)[C@H](C(C)C)NC1=O` [Example 1208] ({CH2CO}-FYDWV[Bip]A[NMeA][NMeF]RLVSCG-NH2; thioether N-14), the IC50 amounted to 820 nM.

As for `CC(C)C[C@@H]1NC(=O)[C@H](CCCNC(=N)N)NC(=O)[C@H](Cc2ccccc2)N(C)C(=O)[C@H](CCCCN)NC(=O)[C@H](CCCNC(=N)N)NC(=O)[C@H](Cc2ccc(-c3ccccc3)cc2)NC(=O)[C@H](C(C)C)NC(=O)[C@H](Cc2c[nH]c3ccccc23)NC(=O)[C@H](CC(=O)O)NC(=O)[C@H](Cc2ccc(O)cc2)NC(=O)[C@H](CC(N)=O)NC(=O)CSC[C@@H](C(=O)N[C@@H](C)C(N)=O)NC(=O)[C@H]([C@@H](C)O)NC(=O)[C@H](C(C)C)NC1=O` [Example 1365] ({CH2CO}-NYDWV[Bip]RK[NMeF]RLVTCA-NH2; thioether N-14), the IC50 came to 760 nM.

Turning to `CC(C)C[C@@H]1NC(=O)[C@H](Cc2c[nH]c3ccccc23)NC(=O)[C@H](CC(=O)O)NC(=O)[C@H](Cc2ccc(O)cc2)NC(=O)[C@H](CC(N)=O)NC(=O)CSC[C@@H](C(=O)NCC(N)=O)NC(=O)[C@H]([C@@H](C)O)NC(=O)[C@H](C(C)C)NC(=O)[C@H](CC(C)C)NC(=O)[C@H](CC(N)=O)NC(=O)[C@H]2CCCN2C(=O)[C@H](CCCN)NC(=O)[C@H](C(C)C)NC(=O)[C@H](Cc2ccc(-c3ccccc3)cc2)NC1=O` [Example 1424] ({CH2CO}-NYDWL[Bip]V[Orn][dP]NLVTCG-NH2; thioether N-14), the concentration for half-maximal inhibition (IC50) came to 660 nM.

Consider `CC(C)C[C@@H]1NC(=O)[C@H](CCCNC(=N)N)NC(=O)[C@H](Cc2ccccc2)N(C)C(=O)[C@H](C)N(C)C(=O)[C@H](CCCNC(=N)N)NC(=O)[C@H](Cc2ccc(-c3ccccc3)cc2)NC(=O)[C@H](C(C)C)NC(=O)[C@H](Cc2c[nH]c3ccccc23)NC(=O)[C@H](CC(=O)O)NC(=O)[C@H](Cc2ccc(O)cc2)NC(=O)[C@H](Cc2cnc[nH]2)NC(=O)CSC[C@@H](C(=O)N[C@@H](C)C(N)=O)NC(=O)[C@H](CO)NC(=O)[C@H](C(C)C)NC1=O` [Example 1302] ({CH2CO}-HYDWV[Bip]R[NMeA][NMeF]RLVSCA-NH2; thioether N-14), for which the IC50 was found to be 350 nM.

As for `CC(C)C[C@@H]1NC(=O)[C@H](CCCNC(=N)N)NC(=O)[C@H](Cc2ccccc2)N(C)C(=O)[C@H](C)N(C)C(=O)[C@H](CCCNC(=N)N)NC(=O)[C@H](Cc2ccc(-c3ccccc3)cc2)NC(=O)[C@H](C(C)C)NC(=O)[C@H](Cc2c[nH]c3ccccc23)NC(=O)[C@H](CC(=O)O)NC(=O)[C@H](Cc2ccc(O)cc2)NC(=O)[C@H](Cc2ccccc2)NC(=O)CSC[C@@H](C(=O)NCC(N)=O)NC(=O)[C@H](CO)NC(=O)[C@H](C(C)C)NC1=O` [Example 1000] ({CH2CO}-FYDWV[Bip]R[NMeA][NMeF]RLVSCG-NH2; thioether N-14), the IC50 is 260 nM.

Consider `CC(C)C[C@@H]1NC(=O)[C@H](Cc2c[nH]c3ccccc23)NC(=O)[C@H](CC(=O)O)NC(=O)[C@H](Cc2ccc(O)cc2)NC(=O)[C@H](Cc2ccccc2)NC(=O)CSC[C@@H](C(=O)NCC(N)=O)NC(=O)[C@H]([C@@H](C)O)NC(=O)[C@H](C(C)C)NC(=O)[C@H](CC(C)C)NC(=O)[C@H](CC(N)=O)NC(=O)[C@H]2CCCN2C(=O)[C@H](CN)NC(=O)[C@H](C(C)C)NC(=O)[C@H](Cc2ccc(-c3ccccc3)cc2)NC1=O` [Example 1404] ({CH2CO}-FYDWL[Bip]V[Dap][dP]NLVTCG-NH2; thioether N-14), for which the half-inhibitory concentration (IC50) was found to be 390 nM.

For `CC(C)C[C@@H]1NC(=O)[C@H](CCCCN)NC(=O)[C@H](Cc2ccccc2)N(C)C(=O)[C@H](C)N(C)C(=O)[C@H](CCCNC(=N)N)NC(=O)[C@H](Cc2ccc(-c3ccccc3)cc2)NC(=O)[C@H](C(C)C)NC(=O)[C@H](Cc2c[nH]c3ccccc23)NC(=O)[C@H](CC(=O)O)NC(=O)[C@H](Cc2ccc(O)cc2)NC(=O)[C@H](CC(N)=O)NC(=O)CSC[C@@H](C(=O)N[C@@H](CCC(=O)O)C(N)=O)NC(=O)[C@H]([C@@H](C)O)NC(=O)[C@H](C(C)C)NC1=O` [Example 1360] ({CH2CO}-NYDWV[Bip]R[NMeA][NMeF]KLVTCE-NH2; thioether N-14), the IC50 was 570 nM.

For `CC[C@H](NC(=O)[C@@H]1CSCC(=O)N[C@@H](Cc2ccccc2)C(=O)N[C@@H](Cc2ccc(O)cc2)C(=O)N[C@@H](CC(=O)O)C(=O)N[C@@H](Cc2c[nH]c3ccccc23)C(=O)N[C@@H](C(C)C)C(=O)N[C@@H](Cc2ccc(-c3ccccc3)cc2)C(=O)N[C@@H](CCCNC(=N)N)C(=O)N(C)[C@@H](C)C(=O)N(C)[C@@H](Cc2ccccc2)C(=O)N[C@@H](CCCNC(=N)N)C(=O)N[C@@H](CC(C)C)C(=O)N[C@@H](C(C)C)C(=O)N[C@@H](CO)C(=O)N1)C(N)=O` [Example 1337] ({CH2CO}-FYDWV[Bip]R[NMeA][NMeF]RLVSC[Abu]-NH2; thioether N-14), the IC50 was found to be 870 nM.

As for `CCCC[C@@H]1NC(=O)CSC[C@@H](C(=O)NCC(N)=O)NC(=O)[C@H](CO)NC(=O)[C@H](C(C)C)NC(=O)[C@H](CC(C)C)NC(=O)[C@H](CC(N)=O)NC(=O)CN(C)C(=O)[C@H](C)N(C)C(=O)[C@H](C(C)C)NC(=O)[C@H](Cc2ccc(-c3ccccc3)cc2)NC(=O)[C@H](CC(C)C)NC(=O)[C@H](Cc2c[nH]c3ccccc23)NC(=O)[C@H](CC(=O)O)NC(=O)[C@H](Cc2ccc(O)cc2)NC1=O` [Example 1100] ({CH2CO}-[Nle]YDWL[Bip]V[NMeA][Sar]NLVSCG-NH2; thioether N-14), the IC50 was determined as 310 nM.

For `CCCC[C@@H]1NC(=O)[C@H](CCCNC(=N)N)NC(=O)[C@H](Cc2ccccc2)N(C)C(=O)[C@H](C)N(C)C(=O)[C@H](CCCNC(=N)N)NC(=O)[C@H](Cc2ccc(-c3ccccc3)cc2)NC(=O)[C@H](C(C)C)NC(=O)[C@H](Cc2c[nH]c3ccccc23)NC(=O)[C@H](CC(=O)O)NC(=O)[C@H](Cc2ccc(O)cc2)NC(=O)[C@H](Cc2ccccc2)NC(=O)CSC[C@@H](C(=O)NCC(N)=O)NC(=O)[C@H](CO)NC(=O)[C@H](C(C)C)NC1=O` [Example 1067] ({CH2CO}-FYDWV[Bip]R[NMeA][NMeF]R[Nle]VSCG-NH2; thioether N-14), the IC50 turned out to be 160 nM.

Take `CC(C)C1NC(=O)[C@H](Cc2c[nH]c3ccccc23)NC(=O)[C@H](CC(=O)O)NC(=O)[C@H](Cc2ccncc2)NC(=O)[C@H](Cc2ccc(OCC(=O)O)cc2)NC(=O)CSC[C@@H](C(=O)N[C@@H](C)C(N)=O)NC(=O)[C@H]([C@@H](C)O)NC(=O)[C@H](C(C)C)NC(=O)[C@H](CC2CCCCC2)NC(=O)[C@H](CCN)NC(=O)[C@H](Cc2ccc(O)cc2)N(C)C(=O)[C@H](CCCN)NC(=O)[C@H](CCC(=O)O)NC(=O)[C@H](Cc2ccc(-c3ccccc3)cc2)NC1=O` (some centres unmarked) [Example 1452] ({CH2CO}-Y(Carboxymethyl)[4Pal]DW[ξV][Bip]E[Orn][NMeY][Dab][Cha]VTCA-NH2; thioether N-14): the IC50 is 140 nM.
